Tests used:
Assay in all cases: relative viability (nuclei count vs DMSO), 5 days (fraction); higher = more cells survive
[1] = compound: O=C(Nc1c[nH]nc1-c1nc2ccc(CN3CCOCC3)cc2[nH]1)NC1CC1 [AT9283] + Cc1nc(Nc2ncc(C(=O)Nc3c(C)cccc3Cl)s2)cc(N2CCN(CCO)CC2)n1 [Dasatinib] (partner 0.075 µM)
Summary of the method: (§1)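 One day after seeding in 1536-well plates, lung cancer cell lines were dosed by pin tool. Dosing was either single-drug or a fixed anchor-drug dose plus five library-drug doses (not always all listed) in √10 steps. After 5 days, nuclei were stained in one fix-and-stain step and counted on 4× images, and relative viability is the nuclei count of treated wells over that of vehicle wells, given as the median of duplicate plates.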

[2] = compound: C#Cc1cccc(Nc2ncnc3cc(OCCOC)c(OCCOC)cc23)c1 [Erlotinib] + Nc1ncn([C@H]2C[C@H](O)[C@@H](CO)O2)c(=O)n1 [Decitabine] (partner 2 µM)
Summary of the method: as §1

[3] = compound: O=C(Nc1c[nH]nc1-c1nc2ccc(CN3CCOCC3)cc2[nH]1)NC1CC1 [AT9283] + NC(=O)Nc1cc(-c2cccc(F)c2)sc1C(=O)N[C@H]1CCCNC1 [AZD7762] (partner 0.2 µM)
Summary of the method: as §1

[4] = compound: O=C(Nc1c[nH]nc1-c1nc2ccc(CN3CCOCC3)cc2[nH]1)NC1CC1 [AT9283] + COc1cccc2cc(-c3nc([C@H]4CC[C@H](C(=O)O)CC4)n4ncnc(N)c34)[nH]c12 [OSI-027] (partner 0.5 µM)
Summary of the method: as §1

[5] = compound: O=C(Nc1c[nH]nc1-c1nc2ccc(CN3CCOCC3)cc2[nH]1)NC1CC1 [AT9283] + CC1(C)CCC(c2ccc(Cl)cc2)=C(CN2CCN(c3ccc(C(=O)NS(=O)(=O)c4ccc(N[C@H](CCN5CCOCC5)CSc5ccccc5)c(S(=O)(=O)C(F)(F)F)c4)cc3)CC2)C1 [Navitoclax] (partner 0.5 µM)
Summary of the method: as §1

| Cell Line | relative viability ([1]; first compound 0.003 µM) | relative viability ([1]; first compound 0.03 µM) | relative viability ([1]; first compound 0.09487 µM) | relative viability ([1]; first compound 0.3 µM) | relative viability ([2]; first compound 0.02 µM) | relative viability ([2]; first compound 0.2 µM) | relative viability ([2]; first compound 0.6325 µM) | relative viability ([2]; first compound 2 µM) | relative viability ([3]; first compound 0.003 µM) | relative viability ([3]; first compound 0.03 µM) | relative viability ([3]; first compound 0.09487 µM) | relative viability ([3]; first compound 0.3 µM) | relative viability ([4]; first compound 0.003 µM) | relative viability ([4]; first compound 0.03 µM) | relative viability ([4]; first compound 0.09487 µM) | relative viability ([4]; first compound 0.3 µM) | relative viability ([5]; first compound 0.003 µM) | relative viability ([5]; first compound 0.03 µM) | relative viability ([5]; first compound 0.09487 µM) | relative viability ([5]; first compound 0.3 µM) |
| --- | --- | --- | --- | --- | --- | --- | --- | --- | --- | --- | --- | --- | --- | --- | --- | --- | --- | --- | --- | --- |
| NCI-H2347 | 0.342 | 0.313 | 0.26 | 0.223 | 0.633 | 0.642 | 0.589 | 0.576 | 0.781 | 0.676 | 0.324 | 0.341 | 0.444 | 0.427 | 0.404 | 0.296 | 0.93 | 0.764 | 0.368 | 0.267 |
| NCI-H2405 | 0.177 | 0.185 | 0.132 | 0.107 |  | 0.706 | 0.647 | 0.629 | 0.771 | 0.566 | 0.208 | 0.163 | 0.685 | 0.654 | 0.533 | 0.262 | 1.05 | 0.31 | 0.127 | 0.0943 |
| NCI-H3122 | 0.763 | 0.664 | 0.111 | 0.0513 | 0.533 | 0.402 | 0.443 | 0.386 | 0.958 | 0.917 | 0.363 | 0.17 | 0.94 | 0.645 | 0.201 | 0.115 | 1.01 | 0.902 | 0.359 | 0.298 |
| PC-3 [JPC-3] | 1.06 | 1.02 | 0.876 | 0.718 | 0.842 | 0.446 | 0.429 | 0.431 | 0.826 | 0.741 | 0.609 | 0.394 | 0.741 | 0.791 | 0.591 | 0.517 | 0.821 | 0.723 | 0.363 | 0.331 |
| PC-14 | 0.221 | 0.146 | 0.0272 | 0.016 | 0.194 | 0.142 | 0.151 | 0.145 | 0.341 | 0.371 | 0.206 | 0.0832 | 0.878 | 0.745 | 0.0842 | 0.08 | 1.12 | 1.01 | 0.37 | 0.078 |
| RERF-LC-KJ | 0.864 | 0.391 | 0.212 | 0.188 | 0.638 | 0.62 | 0.649 | 0.582 | 0.836 | 0.578 | 0.387 | 0.243 | 0.609 | 0.544 | 0.308 | 0.279 | 0.834 | 0.554 | 0.223 | 0.217 |
